Measurements taken from patent US5434188A, “1-ether and 1-thioether-naphthalene-2-carboxamides as inhibitors of cell adhesion and as inhibitors of the activation of HIV” (Warner-Lambert Company, priority 1994, dated 1995).
pIC50: −log10 of the molar value.

How the values were obtained:
[1] = system: HIV-1 activation in OM-10.1 cells; settings: poster NCDDG/AIDS 1991; cited from earlier work
[2] = system: CD4 down regulation and viral expression in HIV-infected cells; settings: Hamamoto, et al. 1989; cited from earlier work
[3] = system: human neutrophil adhesion to TNF-α stimulated human umbilical vein endothelial cells; test: Modified method: inhibition of human neutrophil adhesion to TNF-α stimulated HUVEC (ECA), calcein-labeled neutrophils; type: cell-based; settings: for inhibition at 100 µM / inhibition at 33 µM: Neutrophil, neutrophils labeled with calcein; for inhibition at 100 µM: footnote d: 100 μM; for inhibition at 33 µM: footnote c: 33 μM
Protocol: MODIFIED METHOD FOR DETERMINING THE INHIBITION OF HUMAN NEUTROPHIL ADHESION TO TNF-α STIMULATED HUMAN UMBILICAL VEIN ENDOTHELIAL CELLS
Second passage HUVEC (Clonetics Corporation, San Diego, Calif., CC-2617) were seeded into Corning (Corning glass works, Corning, N.Y.) 96-well cell culture plates at approximately 5×10^3 cells/well and grown to confluency in supplemented endothelial basal medium (EBM, MCDB-131, Clonetics, 10 ng/mL EGF, 1 μg/mL hydrocortisone, 0.4% bovine brain extract, 5% Fetal Bovine Serum). One day prior to running the assay, typically 3 days postseeding, the cultures were re-fed with 0.2 mL/well supplemented EBM (S-EBM).
Preparation of Test Compounds
Test compounds were prepared as 10 mL stock solutions at a concentration of 1.0 mM. The compound were initially solubilized in 0.1 mL DMSO followed by the addition of 9.9 mL S-EBM. The drug preparations were then diluted in one step to a concentration of 66.6 μM. Solubilizations and dilutions were performed in polystyrene containers.
Recombinant human tumor necrosis factor-α(TNF, Genzyme, Boston, Mass., code TNF-H) was prepared at 400 U/mL in S-EBM. Stock TNF was prepared to 20,000 U/mL in Delbecco's phosphate buffered saline (PBS, Gibco, Grand Island, N.Y.) plus 0.1% BSA and stored at -70° C. HUVEC were washed one time with 0.2 mL warm unsupplemented EBM and then stimulated for 4 hours at 37° C. with 200 U/mL TNF in the presence of 33.3 μM test compound. This was accomplished by adding 0.1 mL of 400 U/mL TNF and 0.1 mL 66.6 μM test compound. These additions were done slowly as to not disrupt the HUVEC monolayer. Each compound was tested in six wells. Unstimulated (Vehicle control) and TNF-stimulated without test compound treatments were also run in each plate.
One hour prior to adding the neutrophils to the HUVEC, neutrophils (5×10^6/ mL) were labeled for 30 minutes at 37° C. with 5 μM calcein-AM (Molecular Probes, Eugene, Oreg.) in Hanks' balanced salt solution plus 0.45% BSA. Stock calcein was prepared to 5 mM in anhydrous DMSO and stored desiccated at -20° C. At the end of the incubation the cells were washed two times in cold HBSS and resuspended to a final concentration of 1×10^6 cells/mL in unsupplemented EBM.
Addition of Neutrophils to HUVEC
At the end of the 4-hour stimulation and immediately prior to the addition of the neutrophils to the HUVEC monolayer, the plates were washed with 0.2 mL warm unsupplemented EBM to remove TNF and drug. Neutrophils (1×10^5 cells) were slowly added to each of the treated wells and incubated for 30 minutes at 37° C. At the end of the incubation the plates were washed two times with 0.2 mL warm unsupplemented EBM followed by a final addition of 0.1 mL for plate scanning.
Determination of Relative Fluorescence
The relative fluorescence was determined using a Millipore Cytofluor 2300 system (excitation=480, emission=530, sensitivity=4).
Results were expressed as means of percent inhibition of TNF-stimulated adherence, using the following equation: [formula]
Some of these compounds were tested at concentrations of 33.3 μM, 10.0 μM, 3.3 μM, and 1.0 μM to determine IC50 values. Linear regression analysis of the means of the inhibition values were used to determine the IC50.

ICAM-1 = test: ELISA of ICAM-1 on TNFα stimulated HUVEC; type: cell-based, human; settings: first of the two values
Protocol: (§1) Murine monoclonal anti-human ICAM-1 (R & D Systems, Cat No. BBA-4) or murine monoclonal anti-human E-selectin (R & D, Cat No. BBA-2) dissolved in DMEM/2%BSA were added to each well at 0.5 μg/mL and allowed to incubate at 37° C. for 2 hours. HUVEC monocultures were then washed 4 times with DMEM/2%BSA. A peroxidase conjugated sheep anti-mouse IgG (Cappel) was added (1:3,000 dilution) and allowed to incubate 1 hour at 37° C. The cells were then washed 4 times with DMEM. A color reagent (Biorad) was added to the fixed cells and incubated 15 minutes at room temperature. The reaction was stopped with a 2% oxalic acid solution and the absorbance read at 414 nm on a titertek plate reader.
(§2) Compounds were dissolved in DMSO at a concentration of […] and diluted with media to obtain final testing concentrations. HUVECs received compound dissolved in media 30 minutes before the TNFα challenge. The absorbance of non-stimulated HUVECs was subtracted from the absorbance values of TNFα stimulated cells before percent inhibition was determined. Percent inhibition was determined by comparing the absorbance of vehicle treated cells with drug treated cells. IC50 s were determined using linear regression analysis.

E-selectin = test: ELISA of E-selectin on TNFα stimulated HUVEC; type: cell-based, human; settings: second of the two values
Protocol: as §1, §2

[4] = system: HIV-1 activation in OM-10.1 cells; test: Inhibition of activation of latent HIV-1 in the OM-10.1 cell line (TNF-α induced); type: cell-based; settings: Human immunodeficiency virus 1, read-out: OM-10n (IC50 μM)
Excerpt: The cellular pathways involved in mediating the activating signal from the plasma membrane to the integrated virus, resulting in HIV-1 expression, are much less clear. Recently, the development of a reliable and simple system for evaluating compounds that could prevent activation of latent HIV was reported at the National […] (NCDDG)/AIDS by P. Feorino, S. T. Butera, T. M. Folks, and R. F. Schinazi, Nov. 3-7, 1991. The assay system employed the OM-10.1 cell line, a unique chronically-infected promyelocytic clone which remains CD4+ until HIV-1 activation with tumor necrosis factor-α. The expression of CD4+ on the cell surface and the activity of reverse transcriptase are used as markers for quantitating viral expression. Alternatively, other HIV markers, such as protease activity, which are known to those of skill in the art can be used. OM-10.1 cells remain CD4^+ until viral activation and respond to tumor necrosis factor induction, and therefore, these cultures are used to conveniently and rapidly examine pharmacologics for an ability […] down modulation (decrease in expression of CD4^+ on the cell surface) and HIV-1 expression.
A variety of compounds known to have antiviral properties against either acutely or chronically infected cells were evaluated for their ability to inhibit HIV expression in these OM-10.1 cells. […]

[5] = system: human neutrophil adhesion to TNF-α, IL-α, and LPS-stimulated human umbilical vein endothelial cells; test: Inhibition of human neutrophil adhesion to stimulated human umbilical vein endothelial cells (ECA), 51Cr-labeled neutrophils; type: cell-based; settings: footnote b: 100 μM, neutrophils labeled with Cr
Excerpt: METHOD FOR DETERMINING THE INHIBITION OF HUMAN NEUTROPHIL ADHESION TO TNF-α, IL-α, AND LPS-STIMULATED HUMAN UMBILICAL VEIN ENDOTHELIAL CELLS (ECA)
Neutrophils were isolated from anticoagulant-treated venous blood obtained from healthy human volunteers according to the method of Ferrante and Thong (J. Immunol. Methods 24:389-393 (1978)). The cell preparations consisted of greater than 98% neutrophils.
Second passage human umbilical vein endothelial cells (HUVEC) (Clonetics, San Diego, Calif.) were seeded into Falcon 24-well cell culture plates (Becton Dickinson, Lincoln Park, N.J.) at approximately 2×10^4 cells per well. The cells were grown to confluent monolayers in endothelial basal medium (EBM, Clonetics) supplemented with 5% fetal calf serum (Hyclone Laboratories, Logan, Utah), 10 ng/mL EGF, 1 μg/mL hydrocortisone, 0.4% bovine brain extract (Clonetics) in 5% CO2 at 37° C. […]
Stimulation of HUVEC with tumor necrosis factor-α (TNF-α) (Genzyme, Cambridge, Mass.), interleukin (IL-1α) (Genzyme) or E. coli 0111:B4 lipopolysaccharide (LPS) (Sigma) in the presence or absence of drug was initiated 4 hours prior to the addition of neutrophils. […] Lysates were collected and the radioactivity in each well was determined by gamma ray spectroscopy. […]

**Q.** Which “inhibition of HIV-1 activation, in words” value [1] does the source give for `Cc1cn([C@H]2C[C@H](F)[C@@H](CO)O2)c(=O)[nH]c1=O` [3'-fluoro-3'-deoxythymidine (FLT), 3'-fluoro-3'-deoxythymidine] here?
**A.** Its value is “modest inhibitors of the activation of HIV-1”.

**Q.** With `CCCCCCCCCCCCCC(=O)O[C@@H]1[C@@H](C)[C@@]2(O)[C@@H](C=C(CO)C[C@]3(O)C(=O)C(C)=C[C@@H]23)[C@@H]2C(C)(C)[C@]12OC(C)=O` [12-0-tetradecanoylphorbol-13-acetate] as the compound, how does the “effect on CD4 down regulation and HIV expression, in words” value [2] read?
**A.** The value was “mediates CD4 down regulation and viral expression in HIV-infected cells”.

**Q.** With `COc1ccc2ccc(C(N)=O)c(OC(C)C)c2c1` [Example 1, 7-Methoxy-1-(1-methylethoxy)-2-naphthalenecarboxamide] as the compound, how does the pIC50 ([3]; footnote a, neutrophil adhesion to stimulated HUVEC, neutrophil label not given) read?
**A.** The pIC50 was 4.96.

**Q.** And the “ICAM/ESEL % Inhib @ 30 μM: ICAM” value (ICAM-1)?
**A.** The value was 77%.

**Q.** What about the “ICAM/ESEL % Inhib @ 30 μM: ESEL” value (E-selectin) of the same compound?
**A.** The value was 84%.

**Q.** And the IC50 [4]?
**A.** The IC50 was 2.5 µM.

**Q.** Which inhibition at 100 µM [3] does the source give for `CCNC(=O)c1ccc2ccc(OC)cc2c1OC(C)C` [Example 2, N-Ethyl-7-methoxy-1-(1-methylethoxy)-2-naphthalenecarboxamide] here?
**A.** Its inhibition at 100 µM is 73%.

**Q.** With `COc1ccc2ccc(C(=O)NC(C)C)c(OC(C)C)c2c1` [Example 3, 7-Methoxy-1-(1-methylethoxy)-N-(1-methylethyl)-2-naphthalenecarboxamide] as the compound, how does the inhibition at 33 µM [3] read?
**A.** Its inhibition at 33 µM is 64%.

**Q.** With `COc1ccc2ccc(C(=O)NCc3ccccc3)c(OC(C)C)c2c1` [Example 4, 7-Methoxy-1-(1-methylethoxy)-N-(phenylmethyl)-2-naphthalenecarboxamide] as the compound, how does the inhibition at 100 µM [3] read?
**A.** The inhibition at 100 µM was 14%.

**Q.** For `CC(C)Oc1ccc2ccc(C(N)=O)c(OC(C)C)c2c1` [Example 5, 1,7-Bis-(1-methylethoxy)-2-naphthalenecarboxamide], which inhibition at 100 µM [5] is on record?
**A.** Its inhibition at 100 µM is 45%.

**Q.** And the IC50 [4]?
**A.** The IC50 was 0.5 µM.

**Q.** With `COc1ccc2c(OC(C)C)c(C(N)=O)ccc2c1` [Example 6, 6-Methoxy-1-(1-methylethoxy)-2-naphthalenecarboxamide] as the compound, how does the inhibition at 33 µM [3] read?
**A.** The inhibition at 33 µM was 9%.

**Q.** Which inhibition at 33 µM [3] does the source give for `COc1ccc2ccc(C(N)=O)c(OC)c2c1` [Example 7, 1,7-Dimethoxy-2-naphthalenecarboximide] here?
**A.** Its inhibition at 33 µM is 15%.

**Q.** Which “effect on CD4 down regulation and HIV expression, in words” value [2] does the source give for `CN[C@@H]1C[C@H]2O[C@@](C)([C@@H]1OC)n1c3ccccc3c3c4c(c5c6ccccc6n2c5c31)C(=O)NC4` [Staurosporine, staurosporine] here?
**A.** The value was “effective TPA inhibitor for both of these actions”.

**Q.** Which “inhibition of HIV-1 activation, in words” value [1] does the source give for `CC(=O)N(O)CCCCCNC(=O)CCC(=O)N(O)CCCCCNC(=O)CCC(=O)N(O)CCCCCN` [desferrioxamine] here?
**A.** Its value is “modest inhibitors of the activation of HIV-1”.

**Q.** With “interferon Y: modest inhibitor of the activation of HIV-1” as the compound, how does the “inhibition of HIV-1 activation, in words” value [1] read?
**A.** The value was “modest inhibitors of the activation of HIV-1”.
